Patent US20200245616A1, “A Disinfectant Composition with Extended Antimicrobial Effects” (Siamons International Inc., priority 2017, published 2020)

Columns and labels:
Assay type in all cases: cell-based
[1] = test system: Pseudomonas aeruginosa ATCC 15442; assay: AOAC Official Method 961.02 Germicidal Spray Method, bacteria on glass carriers; details: 10 min contact
Description: (§1) In this method, a series of glass slides (“carriers”) were inoculated with a representative test organism and the carriers were dried under ambient conditions. The dried organisms on the surface of the carrier were then sequentially treated with the composition of the present disclosure in the form of a spray product and were exposed for a pre-determined exposure time. After exposure, the carriers were sequentially transferred to a liquid subculture medium specifically selected to neutralize the composition of the present disclosure and to recover any surviving test organism. The carriers were incubated and visually examined for the presence or absence of growth. […] Required organisms for a disinfection claim include but are not limited to Staphylococcus aureus, Salmonella choleraesuis and Pseudomonas aeruginosa.
(§2) Method Adapted to the Preparation of Bacteria Cultures from −80° C. Freshly Recovered Stock. […] Added 10 μL of the thawed stock to a tube containing 10 mL synthetic broth and then vortexed to mix. Discarded the rest of cryovial stock. • Incubated the tube at 36 ±1° C. for 24 hours (h). Briefly vortexed the 24 h culture prior to transfer. For this final subculture step, inoculated two 20×150 mm tubes containing 10 mL synthetic broth with […] of the 24 h synthetic broth culture. • Incubated 48 h at 36±1° C. Using a Vortex-style mixer, mixed synthetic broth test cultures 3-4 seconds and let stand 10 minutes at room temperature before continuing. Removed the upper portion of each culture, leaving behind any debris or clumps, and transferred to a sterile tube. Titrated the culture by plating on synthetic agar plates, and diluted to 5×10^8 Colony Forming Units (CFU) per mL.
(§3) High volume screening studies were conducted in some cases where only 4 organism-inoculated carriers were treated at specified concentrations of CTAB. Vortex-mixed the inoculum periodically during inoculation of the carriers. • Immediately spread the inoculum uniformly over the majority of the carrier surface using a sterile loop. […] Covered dish immediately and repeated operation until 64 carriers had been prepared for the test. Once all of the carriers had been inoculated, placed in incubator at 37° C. for 40 minutes until dry.
(§4) • After the test organisms were dried on the surface of the carrier, each carrier was sprayed with the respective disinfection formulae 10 times in 10 seconds at a distance of 30 cm. • Treatment interval was timed. Ten (10) minutes after each carrier had been sprayed by the disinfectant, the excess liquid was removed and the carriers were transferred in a sequentially timed fashion into the culture tubes containing 20 ml neutralizer (Letheen Broth with 0.07% Lecithin/0.5% Tween 80/0.1% Sodium Thiosulfate) to neutralize the disinfectant. […] The percentage of the treated carriers showing growth after 48 hours was recorded.

[2] = test system: Staphylococcus aureus ATCC 6538; assay: as above; details: for Staphylococcus aureus Growth Rate: 10 min contact; for killing Staphylococcus aureus: 1.0% QAH
Description: as §1, §2, §3, §4

[3] = test system: Aspergillus niger ATCC 6275; assay: AOAC Official Method 961.02 Germicidal Spray Method, fungal conidia on glass carriers; details: 10 min contact
Description: as §1
(§5) The conidiospore suspension was macerated in a tissue grinder. The suspension was filtered through sterile cotton to remove the hyphae and hyphal fragments.
(§6) Vortex-mixed the inoculum periodically during inoculation of the carriers. • Immediately spread the inoculum uniformly over the majority of the carrier surface using a sterile loop. […] High volume screening studies were conducted in some cases where only 4 organism-inoculated carriers were treated at specified concentrations of CTAB. Once all of the carriers had been inoculated, the carriers were placed in an incubator at 37° C. for 40 minutes until completely dry.
(§7) • After drying, each carrier was sprayed with the respective disinfection formulae 10 times in 10 seconds at a distance of 30 cm. • Timed the treatment interval. Ten (10) minutes after each carrier had been exposed to the disinfectant, the excess liquid was removed and the carriers were transferred in a sequentially timed fashion into the culture tubes containing 20 ml neutralization broth (Letheen Broth with 0.07% Lecithin /0.5% Tween 80) to neutralize the disinfectant. • After the carriers were deposited in the respective culture tubes, the tubes were recapped and the cultures were thoroughly resuspended. • Incubated all neutralization tubes at 28 ±1° C. for 14 days. • After 14 days, the cultures within the tubes were examined for growth. The percentage of the treated carriers showing growth was recorded.

[4] = test system: Penicillium variable ATCC 32333; assay: as above; details: 10 min contact
Description: as §1, §5, §6, §7

[5] = test system: Trichophyton mentagrophytes ATCC 9533; assay: as above; details: 10 min contact
Description: as §1, §5, §6, §7

[6] = test system: select bacteria and fungal organisms; assay: Germicidal spray disinfection, summary over the tested organisms; details: 0.01% QAH in CMC; 10-minute contact time
Experimental: All experiments were conducted according to the protocol outlined in AOAC Official Method 961.02 (Germicidal Spray Method), which is a carrier-based method used to evaluate disinfection efficacy of aerosol/pump-based spray products and liquid products for registration with regulatory agencies such as the U.S. EPA and Health Canada.
It was expected that if the CTAB was replaced by QAH's of similar structure that the disinfection of selected bacteria and fungal organisms would be similarly achieved. […] In the case of bacteria testing, the experimental procedure was as outlined in Example 1 for disinfection of bacterial cultures. In the case of fungal organisms, the experimental procedure was as outlined in Example 1 for the preparation of fungal cultures.

| Compound | Pseudomonas aeruginosa Growth Rate ([1]; CMC + QAH, QAH 0.010%) | Pseudomonas aeruginosa Growth Rate ([1]; CMC + QAH, QAH 0.100%) | Pseudomonas aeruginosa Growth Rate ([1]; CMC + QAH, QAH 1.000%) | Pseudomonas aeruginosa Growth Rate ([1]; Water + QAH, QAH 0.010%) | Pseudomonas aeruginosa Growth Rate ([1]; Water + QAH, QAH 0.100%) | Pseudomonas aeruginosa Growth Rate ([1]; Water + QAH, QAH 1.000%) | Staphylococcus aureus Growth Rate ([2]; CMC + QAH, QAH 0.010%) | Staphylococcus aureus Growth Rate ([2]; CMC + QAH, QAH 0.100%) | Staphylococcus aureus Growth Rate ([2]; CMC + QAH, QAH 1.000%) | Staphylococcus aureus Growth Rate ([2]; Water + QAH, QAH 0.010%) | Staphylococcus aureus Growth Rate ([2]; Water + QAH, QAH 0.100%) | Staphylococcus aureus Growth Rate ([2]; Water + QAH, QAH 1.000%) | Penicillium variable Growth Rate ([4]; CMC + QAH, QAH 0.010%) | Penicillium variable Growth Rate ([4]; CMC + QAH, QAH 0.100%) | Penicillium variable Growth Rate ([4]; CMC + QAH, QAH 1.000%) | Penicillium variable Growth Rate ([4]; Water + QAH, QAH 0.010%) | Penicillium variable Growth Rate ([4]; Water + QAH, QAH 0.100%) | Penicillium variable Growth Rate ([4]; Water + QAH, QAH 1.000%) | Trichophyton mentagrophytes Growth Rate ([5]; CMC + QAH, QAH 0.010%) | Trichophyton mentagrophytes Growth Rate ([5]; CMC + QAH, QAH 0.100%) | other results |
| --- | --- | --- | --- | --- | --- | --- | --- | --- | --- | --- | --- | --- | --- | --- | --- | --- | --- | --- | --- | --- | --- |
| CCCCCCCCCCCCCCCC[N+](C)(C)Cc1ccccc1.[Cl-] [BDAC, Benzyl-dimethylhexadecylammonium chloride] | 0% | 0% | 0% | 100% | 25% | 25% | 0% | 0% | 0% | 100% | 0% | 0% | 0% | 0% | 0% | 0% | 0% | 0% | 0% | 0% | Aspergillus niger Growth Rate ([3]; CMC + QAH, QAH 0.010%): 100%; Aspergillus niger Growth Rate ([3]; CMC + QAH, QAH 0.100%): 25%; Aspergillus niger Growth Rate ([3]; CMC + QAH, QAH 1.000%): 0%; Aspergillus niger Growth Rate ([3]; Water + QAH, QAH 0.010%): 100%; Aspergillus niger Growth Rate ([3]; Water + QAH, QAH 0.100%): 75%; Aspergillus niger Growth Rate ([3]; Water + QAH, QAH 1.000%): 0%; Trichophyton mentagrophytes Growth Rate ([5]; CMC + QAH, QAH 1.000%): 0%; Trichophyton mentagrophytes Growth Rate ([5]; Water + QAH, QAH 0.010%): 0%; Trichophyton mentagrophytes Growth Rate ([5]; Water + QAH, QAH 0.100%): 0%; Trichophyton mentagrophytes Growth Rate ([5]; Water + QAH, QAH 1.000%): 0%; effectiveness against the target organisms [6]: remarkable effectiveness |
| CCCC[N+](CCCC)(CCCC)Cc1ccccc1.[Cl-] [BTBAC, Benzyltri-n-butylammonium chloride] | – | – | – | – | – | – | 100% | 100% | 100% | 100% | 100% | 100% | – | – | – | – | – | – | – | – | killing Staphylococcus aureus [2]: incapable of killing |
| CC[N+](CC)(CC)Cc1ccccc1.[Cl-] [BTEAC, Benzyltriethylammonium chloride] | – | – | – | – | – | – | 100% | 100% | 75% | 100% | 100% | 100% | – | – | – | – | – | – | – | – | killing Staphylococcus aureus [2]: incapable of killing |
| CC(C)(C)CC(C)(C)c1ccc(OCCOCC[N+](C)(C)Cc2ccccc2)cc1 [BZT, Benzethonium chloride] | 0% | 0% | 0% | 100% | 100% | 100% | 0% | 0% | 100% | 100% | 25% | 0% | 0% | 0% | 0% | 0% | 0% | 0% | 0% | 0% | Aspergillus niger Growth Rate ([3]; CMC + QAH, QAH 0.010%): 50%; Aspergillus niger Growth Rate ([3]; CMC + QAH, QAH 0.100%): 0%; Aspergillus niger Growth Rate ([3]; CMC + QAH, QAH 1.000%): 0%; Trichophyton mentagrophytes Growth Rate ([5]; CMC + QAH, QAH 1.000%): 0%; Trichophyton mentagrophytes Growth Rate ([5]; Water + QAH, QAH 0.010%): 0%; Trichophyton mentagrophytes Growth Rate ([5]; Water + QAH, QAH 0.100%): 0%; Trichophyton mentagrophytes Growth Rate ([5]; Water + QAH, QAH 1.000%): 0%; effectiveness against the target organisms [6]: remarkable effectiveness |
| CCCCCCCCCCCCCCCCCC[N+](C)(C)C.[Cl-] [TMSAC, Trimethylstearylammonium chloride] | 0% | 0% | 0% | 100% | 50% | 0% | 0% | 0% | 0% | 100% | 100% | 50% | 0% | 0% | 0% | 0% | 0% | 0% | 0% | 0% | Trichophyton mentagrophytes Growth Rate ([5]; CMC + QAH, QAH 1.000%): 0%; Trichophyton mentagrophytes Growth Rate ([5]; Water + QAH, QAH 0.010%): 0%; Trichophyton mentagrophytes Growth Rate ([5]; Water + QAH, QAH 0.100%): 0%; Trichophyton mentagrophytes Growth Rate ([5]; Water + QAH, QAH 1.000%): 0%; effectiveness against the target organisms [6]: remarkable effectiveness |
| Alkyldimethylbenzylammonium chloride [ADBAC] | 0% | 0% | 0% | 0% | 0% | 0% | – | – | – | – | – | – | 0% | 0% | 0% | 0% | 0% | 0% | 0% | 0% | Aspergillus niger Growth Rate ([3]; CMC + QAH, QAH 0.010%): 100%; Aspergillus niger Growth Rate ([3]; CMC + QAH, QAH 0.100%): 0%; Aspergillus niger Growth Rate ([3]; CMC + QAH, QAH 1.000%): 0%; Aspergillus niger Growth Rate ([3]; Water + QAH, QAH 0.010%): 100%; Aspergillus niger Growth Rate ([3]; Water + QAH, QAH 0.100%): 100%; Aspergillus niger Growth Rate ([3]; Water + QAH, QAH 1.000%): 0%; Trichophyton mentagrophytes Growth Rate ([5]; CMC + QAH, QAH 1.000%): 0%; Trichophyton mentagrophytes Growth Rate ([5]; Water + QAH, QAH 0.010%): 0%; Trichophyton mentagrophytes Growth Rate ([5]; Water + QAH, QAH 0.100%): 0%; Trichophyton mentagrophytes Growth Rate ([5]; Water + QAH, QAH 1.000%): 0%; effectiveness against the target organisms [6]: remarkable effectiveness |
